As a reminder, the IC50 is the concentration needed to halve the response being measured. Higher therefore signals weaker potency in that assay.

Structures are written as SMILES. Active and inactive are the calls of the source. The calls are words filed in the database; no cut-off is given here.

Results on two molecules are retold here after ChEMBL document CHEMBL5260810, “Inhibition of bromodomain-containing protein 9 for the prevention of epigenetically-defined drug resistance” (Bioorg Med Chem Lett, 2017).

For assay [1], the system named is HMV-2 cell line. The experiment in a line: Antiproliferative activity against human HMV-2 cell line assessed as reduction in colony formation up to 20 uM supplemented with fresh medium containing compound every 3 days for 9 days by MTT staining based clonogenic assay. Type of assay: functional. The settings on record: time 9.0 day.
The subject of assay [2] is HL-60. The experiment in a line: Cytotoxicity against human HL-60 cells measured after 8 days. Type of assay: functional, cell-based. The settings on record: HL-60, 192 h.
The target of assay [3] is T1, Bromodomain-containing protein 9 (Homo sapiens) (UniProt Q9H8M2).
T1 sequence (whole entry): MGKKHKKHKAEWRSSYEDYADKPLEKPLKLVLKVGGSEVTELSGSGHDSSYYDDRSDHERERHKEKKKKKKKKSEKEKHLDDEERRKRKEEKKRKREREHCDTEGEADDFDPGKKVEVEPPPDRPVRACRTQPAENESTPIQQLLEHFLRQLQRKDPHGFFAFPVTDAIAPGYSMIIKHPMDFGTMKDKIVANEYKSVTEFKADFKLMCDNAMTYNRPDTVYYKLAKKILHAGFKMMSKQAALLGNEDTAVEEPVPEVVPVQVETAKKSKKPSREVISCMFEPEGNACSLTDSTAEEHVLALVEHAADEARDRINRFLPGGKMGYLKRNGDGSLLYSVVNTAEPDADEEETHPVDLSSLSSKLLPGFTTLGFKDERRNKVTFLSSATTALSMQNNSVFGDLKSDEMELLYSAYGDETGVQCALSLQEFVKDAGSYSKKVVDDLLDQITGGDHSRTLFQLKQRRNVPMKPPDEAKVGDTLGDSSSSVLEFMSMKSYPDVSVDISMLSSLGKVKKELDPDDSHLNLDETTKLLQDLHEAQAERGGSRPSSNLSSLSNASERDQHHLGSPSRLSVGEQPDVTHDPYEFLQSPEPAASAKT
Briefly: Inhibition of BRD9 in human PC-9 cells assessed as reduction in ALDH1A1 gene expression at 0.5 uM preincubated with erlotinib for 8 days followed by compound addition and measured after 24 hrs by RNA sequencing analysis. Type of assay: cell-based.

The subject of assay [4] is EB-3. Briefly: Cytotoxicity against human EB-3 cells measured after 3 days. Type of assay: functional, cell-based. The settings on record: EB-3, 72 h.
Assay [5] deals with Jurkat. Briefly: Cytotoxicity against human Jurkat cells measured after 3 days. Type of assay: functional, cell-based. The settings on record: 72 h.
For assay [6], the system named is HuCCT-1. The experiment in a line: Cytotoxicity against human HuCCT-1 cells measured after 3 days. Type of assay: functional, cell-based. The settings on record: HuCCT-1, 72 h.
The nature of assay [7]: Cytotoxicity against human Li-7 cells measured after 3 days. The settings on record: Li-7, 72 h. Type of assay: functional, cell-based.
In assay [8] the test system is SNU-182. Briefly: Cytotoxicity against human SNU-182 cells measured after 3 days. Type of assay: functional, cell-based. The settings on record: SNU-182, 72 h.
The nature of assay [9]: Cytotoxicity against human NCE-G 112 cells measured after 3 days. Type of assay: functional, cell-based. The settings on record: NCE-G 112, 72 h.
For assay [10], the system named is T98G. The experiment in a line: Cytotoxicity against human T98G cells measured after 3 days. Type of assay: functional, cell-based. The settings on record: 72 h.
Assay [11] can be described thus: Cytotoxicity against human NCE-G 120 cells measured after 3 days. The settings on record: NCE-G 120, 72 h. Type of assay: functional, cell-based.
The nature of assay [12]: Cytotoxicity against human SW527 cells measured after 3 days. The settings on record: SW527, 72 h. Type of assay: functional, cell-based.
Assay [13] can be described thus: Cytotoxicity against human YMB-1 cells measured after 3 days. Type of assay: functional, cell-based. The settings on record: YMB-1, 72 h.
Assay [14] can be described thus: Cytotoxicity against human VP229 cells measured after 3 days. The settings on record: VP229, 72 h. Type of assay: functional, cell-based.
A short description of assay [15]: Cytotoxicity against human HCC630 cells measured after 3 days. Type of assay: functional, cell-based. The settings on record: HCC630, 72 h.
Assay [16] relates to HBL-100. The experiment in a line: Cytotoxicity against human HBL-100 cells measured after 8 days. The settings on record: HBL-100, 192 h. Type of assay: functional, cell-based.

For the molecule `C/C=C/Cn1cc(-c2ccc(C(C)(C)O)cc2OC)c2cc[nH]c2c1=O`, the outcome in assay [1] was inactive. In addition, the IC50 in [2] came out at 13.6 µM.

With `C/C=C/Cn1cc(-c2cc(OC)c(C(=O)N3CCOCC3)cc2OC)c2cc(C)[nH]c2c1=O`, in assay [3], the inhibition entry is “Active”. Besides, the IC50 in assay [4], in [5], in [6], in [7], in assay [8] and in assay [9] was 5 µM in each case. Further, the half-maximal inhibitory concentration (IC50) in assay [10], in [11], in assay [12], in assay [13], in assay [14] and in [15] was 5 µM in each case. In [16], the midpoint of inhibition, the IC50, lay at 2 µM.
